The values below come from US20020159969A1, “Small peptide-based therapeutics for reversing cancer-associated MUC-1 mucin-induced immunosuppression” (priority 1997, published 2002).

The test system of one assay is T-cells. The assay can be described thus: Relief of 100 mer MUC1 peptide-induced suppression/anergy of T-cell proliferation (allo-PBLs, 3H-thymidine incorporation). It counts as cell-based, human. To be noted: 100 mer MUC1 peptide 25 μg/ml; 16 mer at varying doses; FIG. 3. How it is done: In the experiment of FIG. 3, purified T-cells (10^6/ml) were cultured in AIM V medium with allo-PBLs in the presence (100 mer MUC1 peptide group; right panel) or absence (media group; left panel) of 100 mer MUC1 synthetic peptide (25 μg/ml) for 6-7 days. At this time, the T-cells were harvested and plated in 96 well flat bottom plates at 10^5/well with allo-PBLs (10^5/well) in the presence or absence of 100 mer MUC1 peptide (25 μg/ml), and the 16 mer MUC1 peptide (less than one tandem repeat) at varying doses. The wells were pulsed with ^3H-thymidine (1 μCi/well) on the fourth day of culture followed by harvesting on the fifth day. ^3H-Thymidine incorporation into the DNA of proliferating T-cells was measured by liquid scintillation counter. Data are shown as mean CPM±standard deviations. Each group was set up in replicates of 3 wells.

For another assay, the system named is T cells. The assay can be described thus: T cell proliferation assay with allo PBLs (3H-thymidine incorporation) with synthetic MUC-1 tandem repeat peptides. It counts as cell-based, human. The following applies: peptide 10 μg/ml, 6-7 days then 5 days, FIG. 2. A general note: Dividing cells build labelled thymidine or BrdU into new DNA.
For another assay, the system named is human T-cell cultures. The assay can be described thus: Mixed lymphocyte reaction / T-cell proliferation (3H-thymidine incorporation) with affinity purified MUC-1 mucin. To be noted: purified MUC-1 mucin added to human T-cell cultures; FIG. 1. It counts as cell-based. Here is the method:
The mixed lymphocyte reaction is conducted by mixing the lymphocytes of HLA disparate individuals in in vitro tissue cultures. The “responder population” in this experiment is purified T-cells from one population, while the “stimulator” population in this experiment is the peripheral blood lymphocytes obtained from an HLA mismatched individual donor. The two cell populations were mixed and cultured either in the presence or absence of various doses of B27.29 affinity purified MUC-1 mucin that was purified from a pleural effusion fluid. The results of this experiment are depicted in FIG. 1.
In the experiment depicted in FIG. 1, 10^6 T-cells were cultured in AIM V medium in presence of 10^6 allo-PBLs (mitomycin C treated) with or without the indicated concentration of affinity purified MUC1 or OSM for 6-7 days. At this time the T-cells were harvested and plated at 10^5/well in 96 well flat bottom plates and the polyclonal stimuli allo-PBLs (10^5/well), or anti-CD3 (1 μg/ml) or PHA (0.2 μg/ml), in presence or absence of MUC1 or OSM for 4 days. Each group was set up in a replicate of five wells. ^3H-thymidine (1 μCi/well) was added and the culture plates were further incubated for 18-24 h before harvesting. ^3H-thymidine incorporation into the DNA of proliferating T-cells was measured by liquid scintillation counting. […]

Method for T cells: Enriched T cell populations were purified from buffy coats obtained from normal red cross donors using nylon wool columns by previously reported procedures. […] For the allo MLR, mitomycin C treated allogeneic PBLs were co-cultured with purified T cells in the presence or absence of affinity purified MUC-1 mucin or control OSM. In most of the experiments, the T cells were cultured 6-7 days in AIM V medium in the absence or presence of MUC-1, MUC-1 derivative or OSM at the indicated concentration. After this time, the T cells were harvested, washed and cultured as indicated.
For the experiment depicted in FIG. 2, purified T cells (10^6/ml) were cultured in AIM V medium with allo PBLs in the absence or presence of MUC-1, MUC-1 derivative or OSM 10 μg/ml for 6-7 days. T cells were harvested and plated in 96 well flat bottom plates at 10^5/well with allo PBLs (10^5/well), in the presence or absence of affinity purified MUC-1, MUC-1 derivative or OSM. Control cultures were treated with either 50 U/ml IL-2 or 1 μg/ml anti-CD28 Mab. After 4 days of culture, ^3H-thymidine (1 μCi/well) was added. The cells were harvested on the fifth day and ^3H-thymidine incorporation was measured by liquid scintillation.

On to GVTSAPDTRPAPGSTA [BP16], for which the “reversal of suppression/anergy induced by a MUC-1 100-mer peptide” value in the assay with T-cells is given as “reverses”. Moreover, the “level of T cell proliferation relative to control” value in the assay with T cells is “not observed”.

Regarding “purified human MUC-1 mucin: B27.29 affinity purified MUC-1 mucin glycoprotein from cancer patient pleural effusion/ascites fluid”, the “T-cell proliferation against allo-antigenic (or mitogenic) stimulus in vitro” value in the assay on human T-cell cultures is “strongly inhibits”.
